# Values joined by “and” are separate entries in the source; they are usually repeats but may differ in a detail not shown here. Identical values can stand only once. Like-named read-outs stand apart in the source and are kept apart here.
# Key:
# [1] = target: T1, human CPR (Homo sapiens, UniProt P16435); experiment: Cytochrome c reduction by purified human CPR (inhibition and kinetics); format: biochemical; conditions: for IC50: 25° C., 50 μM cytochrome c, 15 μM NADPH
# T1 sequence (P16435 43-677 limits assumed): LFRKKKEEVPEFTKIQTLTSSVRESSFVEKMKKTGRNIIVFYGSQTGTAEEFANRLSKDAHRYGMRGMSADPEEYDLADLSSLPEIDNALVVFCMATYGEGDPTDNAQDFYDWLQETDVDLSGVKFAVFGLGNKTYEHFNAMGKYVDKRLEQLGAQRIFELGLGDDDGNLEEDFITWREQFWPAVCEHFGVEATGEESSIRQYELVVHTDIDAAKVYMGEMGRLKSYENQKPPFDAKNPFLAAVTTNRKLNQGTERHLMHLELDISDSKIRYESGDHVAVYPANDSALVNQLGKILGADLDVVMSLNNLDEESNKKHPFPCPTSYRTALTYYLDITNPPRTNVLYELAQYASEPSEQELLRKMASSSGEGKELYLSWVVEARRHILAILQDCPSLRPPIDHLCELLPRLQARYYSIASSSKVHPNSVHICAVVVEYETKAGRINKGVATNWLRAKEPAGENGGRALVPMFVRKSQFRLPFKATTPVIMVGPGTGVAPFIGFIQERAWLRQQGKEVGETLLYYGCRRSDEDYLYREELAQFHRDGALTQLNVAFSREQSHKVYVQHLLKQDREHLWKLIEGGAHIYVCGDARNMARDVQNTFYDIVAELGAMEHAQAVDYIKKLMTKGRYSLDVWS
# Experimental: (§1) Errors are deviation from the fit of the curve (GraFit 5.06).
# (§2) Cytochrome c assays and enzyme kinetic measurements were carried out 25° C. as described^19, using 0.75 pmol purified AgCPR or hCPR. Apparent kinetic parameters (non-linear fitting: Michaelis-Menten equation) and IC50 values were calculated using GraFit version 5.06.
# [2] = system: A. gambiae CYP6Z2 and AgCPR; experiment: 7-benzyloxyresorufin (BR) dealkylation, E. coli membranes coexpressing CYP6Z2 and AgCPR; conditions: read-out: IC50 for inhibition of mosquito CYP6Z2 BR dealkylation; 5 μM BR, 125 microM NADPH, 37° C.
# Experimental: (§3) Measurement of P450 activity was carried out using E. coli membranes coexpressing A. gambiae CYP6Z2 and AgCPR or human CYP3A4 and human CPR. […] Rates were recorded for 5 min at 37° C. using a fluorescence plate reader (Labsystems Fluoroskan Ascent-FL) set to measure λEx 530 λEm585 (BR assay) or λEx 405 λEm530 (BQ assay). Percentage activities were calculated and IC50 curves were plotted using GraFit version 5.
# (§4) For P450 assays, E. coli membranes co-expressing human CYP3A4 and CPR were produced as described. […] Plates were preincubated for 5 min at 37° C. before addition of 5 μl of 5 mM NADPH. Rates were recorded for 5 min at 37° C. using a fluorescence plate reader (Labsystems Fluoroskan Ascent-FL) set to measure λEx 530 λEm585 (BR assay) or λEx 405 λEm530 (BQ assay).
# (§5) Percentage activities were calculated and IC50 curves were plotted using GraFit version 5.
# [3] = target: T2, human CYP3A4 and human CPR (Homo sapiens, UniProt P16435)
# T2 sequence (P16435 1-677): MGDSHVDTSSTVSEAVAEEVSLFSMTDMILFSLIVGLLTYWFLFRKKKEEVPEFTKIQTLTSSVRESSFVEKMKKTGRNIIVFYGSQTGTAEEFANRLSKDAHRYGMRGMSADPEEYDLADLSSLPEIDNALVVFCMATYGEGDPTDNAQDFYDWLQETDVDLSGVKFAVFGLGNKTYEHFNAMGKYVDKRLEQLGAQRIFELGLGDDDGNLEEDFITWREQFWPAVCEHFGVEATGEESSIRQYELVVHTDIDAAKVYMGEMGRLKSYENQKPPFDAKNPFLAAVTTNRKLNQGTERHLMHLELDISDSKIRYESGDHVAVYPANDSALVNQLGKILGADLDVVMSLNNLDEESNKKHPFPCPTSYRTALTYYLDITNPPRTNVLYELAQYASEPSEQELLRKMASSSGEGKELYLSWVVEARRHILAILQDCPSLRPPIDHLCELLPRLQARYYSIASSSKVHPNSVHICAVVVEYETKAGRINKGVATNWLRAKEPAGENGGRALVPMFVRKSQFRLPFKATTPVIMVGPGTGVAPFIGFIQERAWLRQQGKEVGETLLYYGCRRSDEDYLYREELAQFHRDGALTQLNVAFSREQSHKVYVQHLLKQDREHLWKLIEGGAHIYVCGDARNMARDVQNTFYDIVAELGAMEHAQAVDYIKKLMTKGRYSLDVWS
# Experimental: as §3, §4, §5
# [4] = target: T3, A. gambiae CPR (Anopheles gambiae, UniProt Q86QH5, H459Y/V230A); experiment: 2′-5′-ADP Sepharose binding of CPR from whole fly extracts; conditions: crude extracts of A. gambiae
# T3 sequence (Q86QH5 entry or part of it V230A/H459Y): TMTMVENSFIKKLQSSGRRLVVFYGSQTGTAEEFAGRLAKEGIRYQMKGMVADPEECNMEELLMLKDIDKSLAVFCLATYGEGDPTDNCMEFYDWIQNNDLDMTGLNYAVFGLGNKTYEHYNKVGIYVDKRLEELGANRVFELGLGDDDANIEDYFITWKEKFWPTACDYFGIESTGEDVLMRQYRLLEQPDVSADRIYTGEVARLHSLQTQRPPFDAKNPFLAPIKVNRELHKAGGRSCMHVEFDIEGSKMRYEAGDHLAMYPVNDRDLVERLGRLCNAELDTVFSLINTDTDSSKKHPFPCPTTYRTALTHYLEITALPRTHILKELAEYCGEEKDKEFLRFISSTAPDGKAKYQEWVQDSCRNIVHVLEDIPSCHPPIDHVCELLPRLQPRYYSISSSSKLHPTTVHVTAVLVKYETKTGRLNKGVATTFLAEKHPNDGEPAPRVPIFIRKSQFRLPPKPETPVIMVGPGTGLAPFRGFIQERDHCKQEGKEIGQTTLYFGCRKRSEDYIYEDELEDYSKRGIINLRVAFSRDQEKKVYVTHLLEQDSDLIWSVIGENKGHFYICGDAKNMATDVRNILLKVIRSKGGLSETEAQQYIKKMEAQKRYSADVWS
# Experimental: 0.1 g of frozen adult A. gambiae or D. melanogaster flies were added to a pre-chilled mortar and ground to a powder in the presence of liquid nitrogen. The powder was transferred to a 50 ml Falcon tube and 2.5 mls of cold solubilisation buffer (20 mM Tris-Cl pH 8; 10% glycerol; 100 mM KCl and 20 mM CHAPS) added. The suspensions were mixed on a rotary wheel at 4° C. for 2 hrs to solubilise the membrane bound proteins, then centrifuged (5 min; 12,000 rpm; 4° C.) to clarify. […] The clarified whole fly protein extracts were applied to the column and the flow-through collected. The column was washed with 5 ml of solubilisation buffer to remove non-binding proteins. To elute the bound proteins, 3×200 μl of 50 mM 2′ AMP in 0.5×solubilisation buffer was added to the mini-columns, and the 3×200 μl elution fractions collected in Eppendorf tubes. To detect CPR, 25 μl each of solubilised pre-column extract (total fly protein); flow through (unbound protein) and eluted proteins were run on a NuPAGE 4-12% Bis-Tris Gel (Invitrogen; UK) and transferred onto Protran® nitrocellulose membrane (Schleicher & Schuell; Germany) according to the manufacturer's instructions. The membrane was blocked overnight at 4° C. in TBST & 5% milk powder, then incubated for 1 hr with a 1:10000 dilution of anti-Ag CPR primary antibody. […]
# [5] = target: T3, A. gambiae CPR; experiment: biochemical; format: biochemical
# Experimental: as §1, §2
molecule,measurement,setting,value
"2′,5′-ADP [2′-5′-ADP]",IC50,[1]; human CPR,28 µM
same,IC50,[2],234 µM
same,IC50,[3],10 µM
same,binding of CPR to 2′-5′-ADP (Sepharose),[4],does not bind
"c1ccc([I+]c2ccccc2)cc1 [DPI, diphenyliodonium chloride]",IC50,[5],28 µM
same,IC50,[1]; human CPR,361 µM
"NC(=O)C1=CN([C@@H]2O[C@H](COP(=O)(O)OP(=O)(O)OC[C@H]3O[C@@H](n4cnc5c(N)ncnc54)[C@H](OP(=O)(O)O)[C@@H]3O)[C@@H](O)[C@H]2O)C=CC1 [NADPH, reduced form of nicotinamide adenine dinucleotide phosphate]",Km,[5]; read-out: Km NADPH (apparent),30 µM
same,Km,"[1]; human CPR, read-out: Km NADPH (apparent)",14 µM and 15 µM
cytochrome c,Km,"[5]; mosquito enzyme, read-out: Km cytc",23 µM
same,Km,"[1]; human enzyme, read-out: Km cytc",19 µM

# Source: patent US20090010888A1, “Use of cytochrome P450 reductase as insecticidal target” (priority 2004, published 2009)
